For 22 compounds, IC50 results are on record in patent EP4722213A1, “NITROGEN-CONTAINING FUNCTIONAL GROUP-SUBSTITUTED PYRIDAZINOPYRIDONE DERIVATIVE AND USE THEREOF” (Sichuan Huiyu Pharmaceutical Co., Ltd., priority 2023, dated 2024).

A word on the IC50: it is the concentration that inhibits the measured activity by half.

The target in this assay is T1, SOS1 (Homo sapiens, UniProt Q07889).
T1 sequence (Q07889 1-1333): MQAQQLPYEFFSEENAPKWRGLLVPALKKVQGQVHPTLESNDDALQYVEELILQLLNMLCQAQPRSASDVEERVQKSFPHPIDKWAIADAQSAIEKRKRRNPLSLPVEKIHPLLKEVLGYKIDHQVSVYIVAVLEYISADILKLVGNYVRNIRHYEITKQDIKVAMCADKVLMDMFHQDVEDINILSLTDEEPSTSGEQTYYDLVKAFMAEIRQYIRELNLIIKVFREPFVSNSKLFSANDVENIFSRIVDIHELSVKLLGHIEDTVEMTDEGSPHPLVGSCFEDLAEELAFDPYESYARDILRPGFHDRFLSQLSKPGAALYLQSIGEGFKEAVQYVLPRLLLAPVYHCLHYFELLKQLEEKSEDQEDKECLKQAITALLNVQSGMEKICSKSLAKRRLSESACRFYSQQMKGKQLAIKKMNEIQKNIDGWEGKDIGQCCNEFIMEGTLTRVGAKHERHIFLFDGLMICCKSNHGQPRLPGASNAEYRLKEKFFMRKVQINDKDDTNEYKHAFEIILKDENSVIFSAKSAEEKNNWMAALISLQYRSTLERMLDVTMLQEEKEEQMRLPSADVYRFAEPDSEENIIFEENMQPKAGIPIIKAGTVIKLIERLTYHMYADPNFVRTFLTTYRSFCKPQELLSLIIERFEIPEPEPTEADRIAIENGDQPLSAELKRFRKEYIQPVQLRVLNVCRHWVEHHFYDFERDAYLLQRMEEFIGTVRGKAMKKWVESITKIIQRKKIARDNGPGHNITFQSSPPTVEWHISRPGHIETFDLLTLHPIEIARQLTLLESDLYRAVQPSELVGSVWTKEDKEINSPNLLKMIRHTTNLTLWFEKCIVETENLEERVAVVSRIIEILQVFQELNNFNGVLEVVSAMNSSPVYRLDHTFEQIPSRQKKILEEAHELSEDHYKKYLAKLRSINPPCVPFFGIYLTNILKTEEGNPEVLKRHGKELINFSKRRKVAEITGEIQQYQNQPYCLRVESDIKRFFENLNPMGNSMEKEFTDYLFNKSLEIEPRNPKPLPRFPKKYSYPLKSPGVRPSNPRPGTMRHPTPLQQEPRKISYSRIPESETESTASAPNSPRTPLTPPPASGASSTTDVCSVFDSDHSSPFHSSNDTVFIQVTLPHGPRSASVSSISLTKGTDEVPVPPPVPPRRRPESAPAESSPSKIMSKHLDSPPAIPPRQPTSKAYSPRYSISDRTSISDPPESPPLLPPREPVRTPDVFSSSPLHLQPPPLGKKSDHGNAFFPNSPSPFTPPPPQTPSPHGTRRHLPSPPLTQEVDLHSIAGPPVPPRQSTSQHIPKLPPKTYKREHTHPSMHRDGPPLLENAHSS
The experiment in a line: biochemical.
Take `Cc1c([C@@H](C)Nc2nnc(N3CCC(F)(F)CC3)c3cc(=O)n(C4CC4)cc23)cccc1C(F)(F)F` [Example 58, (R)-6-cyclopropyl-1-(4,4-difluoropiperidin-1-yl)-4-((1-(2-methyl-3-(trifluoromethyl)phenyl)ethyl)amino)pyr ido[3,4-d]pyridazin-7(6H)-one]: the midpoint of inhibition, the IC50, lay at 100 nM.
Then `Cc1c([C@@H](C)Nc2nnc(N3CCS(=O)(=O)CC3)c3cc(=O)n(C4CC4)cc23)cccc1C(F)(F)F` [Example 59, (R)-6-cyclopropyl-1-(1,1-dioxidothiomorpholino)-4-((1-(2-methyl-3-(trifluoromethyl)phenyl)ethyl)amino)pyr ido[3,4-d]pyridazin-7(6H)-one], with 27.4 nM; and `CCN(CC)c1nnc(N[C@H](C)c2cccc(C(F)(F)F)c2C)c2cn(C3(C)CC3)c(=O)cc12` [Example 60, (R)-1-(diethylamino)-4-((1-(2-methyl-3-(trifluoromethyl)phenyl)ethyl)amino)-6-(1-methylcyclopropyl) pyrido[3,4-d]pyridazin-7(6H)-one], with 20.9 nM.
To `Cc1c([C@@H](C)Nc2nnc(N3CC4CC4C3)c3cc(=O)n(C4(C)CC4)cc23)cccc1C(F)(F)F` (stereo partly drawn) [Example 62, 1-(3-azabicyclo[3.1.0]hexan-3-yl)-4-(((R)-1-(2-methyl-3-(trifluoromethyl)phenyl)ethyl)amino)-6-(1-methylcyclopropyl) pyrido[3,4-d]pyridazin-7(6H)-one] belongs 9.4 nM; to `Cc1c([C@@H](C)Nc2nnc(N3CCC[C@H]3C)c3cc(=O)n(C4(C)CC4)cc23)cccc1C(F)(F)F` [Example 63, 4-(((R)-1-(2-methyl-3-(trifluoromethyl)phenyl)ethyl)amino)-6-(1-methylcyclopropyl)-1-((R)-2-methylpyrrolidin-1-yl)pyrido[3,4-d]pyridazin-7(6H)-one], 7.8 nM; to `Cc1c([C@@H](C)Nc2nnc(N(C)C)c3cc(=O)n(C4(C)CC4)cc23)cccc1C(F)(F)F` [Example 64, (R)-1-(dimethylamino)-4-((1-(2-methyl-3-(trifluoromethyl)phenyl)ethyl)amino)-6-(1-methylcyclopropyl) pyrido[3,4-d]pyridazin-7(6H)-one], 10.7 nM.
To `Cc1c([C@@H](C)Nc2nnc(N3CCC(F)(F)CC3)c3cc(=O)n(C4(C)CC4)cc23)cccc1C(F)(F)F` [Example 65, (R)-1-(4,4-difluoropiperidin-1-yl)-4-((1-(2-methyl-3-(trifluoromethyl)phenyl)ethyl)amino)-6-(1-methylcyclopropyl) pyrido[3,4-d]pyridazin-7(6H)-one] belongs 61 nM; to `Cc1c([C@@H](C)Nc2nnc(N3CC(F)(F)C3)c3cc(=O)n(C4(C)CC4)cc23)cccc1C(F)(F)F` [Example 66, (R)-1-(3,3-difluoroazetidin-1-yl)-4-((1-(2-methyl-3-(trifluoromethyl)phenyl)ethyl)amino)-6-(1-methylcyclopropyl) pyrido[3,4-d]pyridazin-7(6H)-one], 30.9 nM; to `Cc1c([C@@H](C)Nc2nnc(N3CCC(F)(F)C3)c3cc(=O)n(C4(C)CC4)cc23)cccc1C(F)(F)F` [Example 67, (R)-1-(3,3-difluoropyrrolidin-1-yl)-4-((1-(2-methyl-3-(trifluoromethyl)phenyl)ethyl)amino)-6-(1-methylcyclopropyl) pyrido[3,4-d]pyridazin-7(6H)-one], 29 nM.
`Cc1c([C@@H](C)Nc2nnc(N3CCS(=O)(=O)CC3)c3cc(=O)n(C4(C)CC4)cc23)cccc1C(F)(F)F` [Example 68, (R)-1-(1,1-dioxidothiomorpholino)-4-((1-(2-methyl-3-(trifluoromethyl)phenyl)ethyl)amino)-6-(1-methylcyclopropyl) pyrido[3,4-d]pyridazin-7(6H)-one]: half-maximal inhibition (IC50) was put at 18.9 nM.
Then `Cc1c(C#N)cccc1[C@@H](C)Nc1nnc(N2CCC(F)(F)C2)c2cc(=O)n(C3(C)CC3)cc12` [Example 69, (R)-3-(1-((1-(3,3-difluoropyrrolidin-1-yl)-6-(1-methylcyclopropyl)-7-oxo-6,7-dihydropyrido[3,4-d]pyridazin-4-yl)amino)ethyl)-2-methylbenzonitrile], with 34.2 nM; and `Cc1c(C#N)cccc1[C@@H](C)Nc1nnc(N2CCC2)c2cc(=O)n(C3(C)CC3)cc12` [Example 70, (R)-3-(1-((1-(azetidin-1-yl)-6-(1-methylcyclopropyl)-7-oxo-6,7-dihydropyrido[3,4-d]pyridazin-4-yl)amino)ethyl)-2-methylbenzonitrile], with 6.7 nM.
Then `CCN(CC)c1nnc(N[C@H](C)c2cccc(C#N)c2C)c2cn(C3(C)CC3)c(=O)cc12` [Example 71, (R)-3-(1-((1-(diethylamino)-6-(1-methylcyclopropyl)-7-oxo-6,7-dihydropyrido[3,4-d]pyridazin-4-yl)amino)ethyl)-2-methylbenzonitrile], with 30.8 nM; and `Cc1c(C#N)cccc1[C@@H](C)Nc1nnc(N2CCS(=O)(=O)CC2)c2cc(=O)n(C3(C)CC3)cc12` [Example 72, (R)-3-(1-((1-(1,1-dioxidothiomorpholino)-6-(1-methylcyclopropyl)-7-oxo-6,7-dihydropyrido[3,4-d]pyridazin-4-yl)amino)ethyl)-2-methylbenzonitrile], with 50.4 nM; and `C[C@@H](Nc1nnc(N(C)C)c2cc(=O)n(C3CC3)cc12)c1cccc(C(F)F)c1F` [Example 76, (R)-6-cyclopropyl-4-((1-(3-(difluoromethyl)-2-fluorophenyl)ethyl)amino)-1-(dimethylamino) pyrido[3,4-d]pyridazin-7(6H)-one], with 9.2 nM.
To `CC(=O)N1CCN(c2nnc(N[C@H](C)c3cccc(C(F)F)c3F)c3cn(C4(C)CC4)c(=O)cc23)CC1` [Example 79, (R)-1-(4-acetylpiperazin-1-yl)-4-((1-(3-(difluoromethyl)-2-fluorophenyl)ethyl)amino)-6-(1-methylcyclopropyl)pyrido[3,4-d]pyridazin-7(6H)-one] belongs 12.7 nM; to `Cc1c(C#N)cccc1[C@@H](C)Nc1nnc(N2CCN(C)CC2)c2cc(=O)n(C3(C)CC3)cc12` [Example 82, (R)-2-methyl-3-(1-((6-(1-methylcyclopropyl)-1-(4-methylpiperazin-1-yl)-7-oxo-6,7-dihydropyrido[3,4-d]pyridazin-4-yl)amino)ethyl)benzonitrile], 9 nM.
Turning to `CNc1nnc(N[C@H](C)c2cccc(C#N)c2C)c2cn(C3(C)CC3)c(=O)cc12` [Example 83, (R)-2-methyl-3-(1-((1-(methylamino)-6-(1-methylcyclopropyl)-7-oxo-6,7-dihydropyrido[3,4-d]pyridazin-4-yl)amino)ethyl)benzonitrile], the IC50 was 5.6 nM.
On to `Cc1c(C#N)cccc1[C@@H](C)Nc1nnc(N(C)C)c2cc(=O)n(C3(C)CC3)cc12` [Example 84, (R)-3-(1-((1-(dimethylamino)-6-(1-methylcyclopropyl)-7-oxo-6,7-dihydropyrido[3,4-d]pyridazin-4-yl)amino)ethyl)-2-methylbenzonitrile], for which the midpoint of inhibition, the IC50, lay at 18.7 nM.
As for `Cc1c(C#N)cccc1[C@@H](C)Nc1nnc(N2CCC[C@H]2C)c2cc(=O)n(C3(C)CC3)cc12` [Example 85, 2-methyl-3-((R)-1-((6-(1-methylcyclopropyl)-1-((R)-2-methylpyrrolidin-1-yl)-7-oxo-6,7-dihydropyrido[3,4-d]pyridazin-4-yl)amino)ethyl)benzonitrile], the midpoint of inhibition, the IC50, lay at 11.7 nM.
`Cc1c([C@@H](C)Nc2nnc(N3CCN(C)CC3)c3cc(=O)n(C4CC4)cc23)cccc1C(F)(F)F` [Example 86, (R)-6-cyclopropyl-4-((1-(2-methyl-3-(trifluoromethyl)phenyl)ethyl)amino)-1-(4-methylpiperazin-1-yl)pyrido[3,4-d]pyridazin-7(6H)-one] registered an IC50 of 3.6 nM.
Then `Cc1c(C#N)cccc1[C@@H](C)Nc1nnc(N2CCN(C)CC2)c2cc(=O)n(C3CC3)cc12` [Example 87, (R)-3-(1-((6-cyclopropyl-1-(4-methylpiperazin-1-yl)-7-oxo-6,7-dihydropyrido[3,4-d]pyridazin-4-yl)amino)ethyl)-2-methylbenzonitrile], with 5.7 nM.
